Data on four molecules can be found in patent publication US20250170132A1, “SALTS AND POLYMORPHIC FORMS OF MENIN INHIBITORS AND PHARMACEUTICAL COMPOSITIONS THEREOF” (Syndax Pharmaceuticals, Inc., priority 2023, published 2025).

Like-named read-outs stand apart in the source and are kept apart here.

Data set [1] has as its target T1, menin (Homo sapiens, UniProt O00255).
T1 sequence (O00255 1-610): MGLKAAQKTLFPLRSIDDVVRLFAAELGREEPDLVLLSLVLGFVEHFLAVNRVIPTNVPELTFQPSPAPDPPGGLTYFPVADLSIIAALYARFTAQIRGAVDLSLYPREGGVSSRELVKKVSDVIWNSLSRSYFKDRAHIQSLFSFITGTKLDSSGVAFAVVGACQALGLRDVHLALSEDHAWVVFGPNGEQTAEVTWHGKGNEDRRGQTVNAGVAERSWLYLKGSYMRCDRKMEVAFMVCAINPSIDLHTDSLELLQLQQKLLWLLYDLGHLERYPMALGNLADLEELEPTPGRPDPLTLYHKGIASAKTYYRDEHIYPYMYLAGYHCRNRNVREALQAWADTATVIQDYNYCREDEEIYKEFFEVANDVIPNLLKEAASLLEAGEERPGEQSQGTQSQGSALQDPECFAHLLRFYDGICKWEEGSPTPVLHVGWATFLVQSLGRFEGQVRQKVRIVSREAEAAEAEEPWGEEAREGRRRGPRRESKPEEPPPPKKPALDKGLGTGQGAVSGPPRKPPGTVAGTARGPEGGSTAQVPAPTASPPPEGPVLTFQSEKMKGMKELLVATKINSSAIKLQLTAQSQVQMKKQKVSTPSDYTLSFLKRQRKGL
Kind of data set: Binding to the MLL1 binding pocket on menin. The source says: (§1) Menin inhibitor (e.g., Compound A or a pharmaceutically acceptable salt thereof) disrupts the interaction between menin and the MLL1 fusion proteins which is required for leukemogenic activity, thus impairing expression of critical oncogenes, causing growth arrest and the inhibition of cellular proliferation. Small molecule inhibitors of the menin-MLL interaction have been reported.

In data set [2] the test system is cells harboring MLLr fusions. As to the kind of experiment: Activity in cells harboring MLLr fusions. Type of data set: cell-based.
Text: as §1

The nature of data set [3]: Excipient compatibility study with Compound A monocitrate monohydrate. It is filed as physicochemical. The method, then:
The list of excipients for this study was restricted to those already being used in the tablet formulation provided in Example 7. OpaDry Orange was further added.
Binary mixtures of Compound A monocitrate monohydrate and each excipient, were placed in closed 20 mL borosilicate glass vials (Tables 45-47). The vials were stored at 25° C./60% RH, 30° C./65% RH, and 40° C./75% RH over 8 weeks and later analyzed using methods for Appearance, Compound A Assay, Related Substances, XRPD, and Differential Scanning calorimetry (DSC).

Data set [4] is described as follows: Pharmacokinetics in patients with relapsed or refractory acute leukemia. Type of data set: in vivo, human. The following applies: for Tmax: read-out: Tmax Median; for AUC(0-t): read-out: AUC0-12 h. An excerpt:
The pharmacokinetics of Compound A were characterized in patients with relapsed or refractory acute leukemia following single and multiple oral administration of Compound A with or without strong CYP3A4 inhibitors. Steady-state pharmacokinetic parameters are presented as geometric mean [geometric coefficient of variation (% CV)] unless otherwise specified.

Data set [5] has as its target T2, CYP3A4 (Homo sapiens, UniProt P08684).
T2 construct: from tissue
As to the kind of experiment: Drug interaction studies (clinical studies). The settings on record: for AUC increase / Cmax increase: multiple doses. Type of data set: in vivo. The source says:
Strong CYP3A4 Inhibitors: Compound A AUC and Cmax is increased by 2-fold following concomitant use of multiple doses of Compound A with certain azole antifungals that are strong CYP3A4 inhibitors (i.e., posaconazole, itraconazole, and voriconazole).

Data set [6] in a line: Aqueous solubility of Compound A salts. It is filed as physicochemical. The following applies: across the physiological pH range. The method, then:
Solubility of Compound A citrate was determined in 3 different types of matrices: unbuffered water, citrate-buffered solutions from pH 3 to 6, and formulations consisting of citrate, advantame, methylparaben sodium, potassium sorbate, and sodium chloride at pH ranging from 3 to 6. Solubility in unbuffered water at ambient temperature was 38.5 mg/mL.
The target pH was reassessed when the F3 formulation was developed. Compound A citrate solubility studies were performed initially in simple buffered solutions to assess solubility trends as a function of pH. […] The target concentration of Compound A was therefore changed to 40 mg/mL as a compromise between drug substance and preservatives dissolution rate and stability.

A short description of data set [7]: Polymorph screening of Compound A citrate salt, form conversion (XRPD, DSC/TGA, DVS). The following applies: drying of wet cake (Form B); presence of water (Form C). It is filed as physicochemical.
Data set [8] can be described thus: Slurry and solvent evaporation polymorph experiments of Compound A citrate salt (Table 9). Type of data set: physicochemical. The following applies: upon drying. The protocol: Based on the approximate solubility data of Compound A citrate salt, 18 polymorph experiments were started at RT with stirring (Table 9). Wet cakes from the slurry experiments were analyzed after 5 days of stirring. Wet cake XRPD patterns were checked and materials showing no pattern change were heated from RT to 50° C.
Procedure • 1) Slurry at RT: ˜35 mg citrate salt was slurried in different solvents in 4 mL vials using a magnetic stirrer at RT. The solids in slurry were characterized by XRPD after 3-5 days. • 2) Slurry at 50° C.: Slurries with no change in wet cake XRPD pattern when compared to starting material were heated from RT to 50° C. Samples were analyzed after 2-3 days of stirring.
Wet cake samples were isolated and kept at 25° C. for 2 h for drying. After drying, samples were analyzed by XRPD.

The nature of data set [9]: Single crystal structure, solvate exchange under ambient conditions. Type of data set: physicochemical. The following applies: after exposure to ambient conditions, analyzed at 273 K. The method, then:
Plate-like crystals (FIG. 9) were grown by recrystallization from methanol of Compound A monocitrate monomethanolate by evaporation (prepared from methanol/water 90:10 v/v).

Data set [10] can be described thus: Form C characterization and relative stability of the forms. Type of data set: physicochemical. The following applies: ambient conditions.
Text: Moreover, HNMR studies validated a 1:1 stoichiometry between the freebase and acid.
In data set [11] the test system is NPM1c mutant AML patient-derived xenograft models. The following applies: orally active menin inhibitor; cited from earlier work.
The subject of data set [12] is NPM1c cells. The following applies: cited from earlier work.
[13] abbreviates: 2 pediatric patients, 160 mg/m^2 without strong CYP3A4 inhibitors.
Where [14] appears, read: human, plasma, oral, 163 mg twice daily with strong CYP3A4 inhibitors, steady-state, geometric mean.
The mark [15] stands for this setting: human, plasma, oral, 276 mg twice daily without strong CYP3A4 inhibitors, steady-state, geometric mean.
[16] abbreviates: low fat meal, approximately 400-500 calories, 25% of calories from fat.
The mark [17] stands for this setting: single dose of radiolabeled Compound A 276 mg, adult patients.
[18] abbreviates: with cobicistat (strong CYP3A4 inhibitor).
Setting [19] is: with strong CYP3A4 inhibitor azole antifungals (posaconazole, itraconazole, voriconazole).

T2 sequence (P08684 whole entry): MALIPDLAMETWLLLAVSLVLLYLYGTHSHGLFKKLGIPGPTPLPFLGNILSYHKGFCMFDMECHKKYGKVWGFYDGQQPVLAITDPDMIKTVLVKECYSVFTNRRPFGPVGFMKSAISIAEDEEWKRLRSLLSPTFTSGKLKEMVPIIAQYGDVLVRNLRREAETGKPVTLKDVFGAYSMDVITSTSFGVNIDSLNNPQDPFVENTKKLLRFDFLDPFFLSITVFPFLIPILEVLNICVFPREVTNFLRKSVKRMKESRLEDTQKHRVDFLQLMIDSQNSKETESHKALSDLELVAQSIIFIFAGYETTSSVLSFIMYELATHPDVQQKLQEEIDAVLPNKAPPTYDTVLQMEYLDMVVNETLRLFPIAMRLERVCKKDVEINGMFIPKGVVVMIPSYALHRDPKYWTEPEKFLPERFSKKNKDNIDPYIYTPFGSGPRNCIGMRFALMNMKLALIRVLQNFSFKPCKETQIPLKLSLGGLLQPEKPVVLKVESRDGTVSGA

As a reminder, the Cmax is the maximum level reached in the sampled fluid or tissue. What is called Tmax is the time from dosing to the highest level. One may read the half-life as how long it takes for the measured level to halve. As for `CCN(C(=O)c1cc(F)ccc1Oc1cncnc1N1CC2(CCN(C[C@H]3CC[C@H](NS(=O)(=O)CC)CC3)CC2)C1)C(C)C` [Compound A, trans N-ethyl-2-((4-(7-((4-(ethylsulfonamido)cyclohexyl)methyl)-2,7-diazaspiro[3.5]nonan-2-yl)pyrimidin-5-yl)oxy)-5-fluoro-N-isopropylbenzamide], the “binding affinity to the MLL1 binding pocket on menin” value in data set [1] is “high affinity”. Moreover, the “activity in cells harboring MLLr fusions” value in data set [2] is recorded as “displays activity across a range of cells harboring MLLr fusions”. Further, the “Assay (%) Results” value worked out at 100.3% in data set [3] (8 week, 25° C./60% RH closed); 101.4% in data set [3] (8 week, 30° C./65% RH closed); 100.0% in [3] (8 week, 40° C./75% RH closed); 98.8% in [3] (Initial (t = 0), closed glass vials). The “Apparent Clearance” value came out at 7 L/h in data set [4] (163 mg twice daily with strong CYP3A4 inhibitors, steady-state, geometric mean) and 27 L/h in data set [4] (276 mg twice daily without strong CYP3A4 inhibitors, steady-state, geometric mean). Further, the “AUC0-tau, individual patients” value in data set [4] (setting [13]) turned out to be 16300 ng·h/mL. In addition, the “steady-state Cmax, individual patients” value in data set [4] (setting [13]) turned out to be 4790 ng/mL. The “Dose Proportionality” value in data set [4] (dosage range of 113 mg to 339 mg) is “Dose proportional increases in Cmax and AUC0-12 h”. The “Effect of body weight and BSA on pharmacokinetics” value in data set [4] (higher exposures with lower body weight and BSA) was “significant effect”. Also, in data set [4] (human, in vivo), the “Metabolism: Primary Pathway” value is “CYP3A4”. For the same molecule, the fraction unbound in data set [4] (human, in vivo, independent of concentration, read-out: Protein Binding (converted)) was 0.1. The AUC in [4] (human, plasma, oral, 95 mg/m2, pediatric patients, 95 mg/m^2 with strong CYP3A4 inhibitors, read-out: steady-state AUC0-tau, geometric mean (geometric CV %)) worked out at 14600 ng·h/mL; in data set [4] (human, plasma, oral, 160 mg/m2, 2 pediatric patients, 160 mg/m^2 without strong CYP3A4 inhibitors, read-out: AUC0-tau, individual patients), 25600 ng·h/mL. Besides, the Cmax in data set [4] (human, plasma, oral, 95 mg/m2, pediatric patients, 95 mg/m^2 with strong CYP3A4 inhibitors, read-out: steady-state Cmax, geometric mean (geometric CV %)) came to 3140 ng/mL; in data set [4] (human, plasma, oral, 160 mg/m2, 2 pediatric patients, 160 mg/m^2 without strong CYP3A4 inhibitors, read-out: steady-state Cmax, individual patients) it was 4950 ng/mL; in data set [4] (human, plasma, oral, 163 mg, 163 mg twice daily with strong CYP3A4 inhibitors, steady-state, geometric mean, patients, read-out: Cmax), 3220 ng/mL; in [4] (human, plasma, oral, 276 mg, 276 mg twice daily without strong CYP3A4 inhibitors, steady-state, geometric mean, patients, read-out: Cmax) it was 2050 ng/mL. The Tmax in data set [4] (human, plasma, oral, 163 mg twice daily with strong CYP3A4 inhibitors) is 2 h; in [4] (human, plasma, oral, 276 mg twice daily without strong CYP3A4 inhibitors), 1 h. In addition, the half-life in data set [4] (setting [14]) was 450 min; in data set [4] (setting [15]), 216 min. The results for the AUC(0-t) in data set [4] (setting [14]) and in [4] (setting [15]) were 22600 ng·h/mL and 10200 ng·h/mL, respectively. Further, the Vd in data set [4] (human, plasma, oral, steady-state, geometric mean (% CV), read-out: Apparent Volume of Distribution) turned out to be 78 L. For the same molecule, the “AUC decrease with low fat meal” value in data set [4] (setting [16]) was determined as 12%. For the same molecule, the “Cmax decrease with low fat meal” value in data set [4] (setting [16]) is given as 27%. The “Excretion in Feces” value in [4] (setting [17]) is listed as around 49%. In addition, the “Excretion in Feces, unchanged” value in data set [4] (setting [17]) is listed as 7%. Also, in [4] (setting [17]), the “Excretion in Urine” value is reported as around 27%. The “Excretion in Urine, unchanged” value in data set [4] (setting [17]) was found to be 7%. Further, the Accumulation in data set [4] (steady-state) is 2-fold. Further, the “Time to Steady-State” value in data set [4] (twice daily oral dosing, patients) fell in the range of 2 to 3 days. Also, the AUC increase was 2.5 fold in data set [5] (setting [18]) and 2 fold in data set [5] (setting [19]). Moreover, the Cmax increase was 2.5 fold in data set [5] (setting [18]) and 2 fold in data set [5] (setting [19]). Further, the Differences in pharmacokinetics result in data set [5] (with fluconazole (moderate CYP3A4 inhibitor)) and in [5] (with isavuconazole (moderate CYP3A4 inhibitor)) was “No clinically significant differences” throughout. In data set [6], the solubility result is “high solubility”.
`CCN(C(=O)c1cc(F)ccc1Oc1cncnc1N1CC2(CCN(C[C@H]3CC[C@H](NS(=O)(=O)CC)CC3)CC2)C1)C(C)C.CO.O=C(O)CC(O)(CC(=O)O)C(=O)O` [Form B]: the “stability of polymorphic form / conversion” value in data set [7] was “unstable form and converts to Form A upon drying”. The values for the Form conversion result in [8] and in data set [10] were “converts to Form A upon drying” and “transitions to Form A”, respectively. Also, in [9], the “Solvate exchange of single crystal” value is recorded as “transformed into a monohydrate”.
On to `CNc1nc(NC2CCN(Cc3ccc4c(cc(C#N)n4C[C@H](C)N4CCN(S(C)(=O)=O)CC4)c3C)CC2)c2cc(CC(F)(F)F)sc2n1` [KO-539], for which, in data set [11], the anti-leukemic activity result is “robust anti-leukemic activity”.
As to `Cc1c(CN2CCC(Nc3ncnc4sc(CC(F)(F)F)cc34)CC2)ccc2c1cc(C#N)n2Cc1cn[nH]c1` [MI-503], the “effect on HOXA/MEIS1 transcription program in NPM1c cells” value in data set [12] was “suppress the HOXA/MEIS1 transcription program in NPM1c cells, leading to growth arrest, terminal differentiation and cell death”.
